What all share (format): in vivo, C57BL/6 mice
Assay [1] has as its system mycoplasma-induced pulmonary fibrosis model (MPFH strain). The experiment in a line: Mycoplasma-induced pulmonary fibrosis model. To be noted: 120 mg/kg/d intragastric, 14 days; for Leucocyte / Lymphocyte / Neutrophil: MPFH mycoplasma + bleomycin, once a day, from two weeks after model; for Ashcroft scores: mycoplasma + bleomycin, lung tissue HE. From the text: Experimental method: an in-vivo mycoplasma-induced pulmonary fibrosis model was established: C57BL/6 mice (with weights being 22-25 g) were randomly and evenly divided into a plurality of groups, including blank control group, model group, Nintedanib positive control group, hypoxanthine analogue A group, hypoxanthine analogue B group, hypoxanthine analogue C group, compound 1 group, compound 2 group . . . compound 12 group, with 9 mice in each group. Before a model was established, the mice were anesthetized with diethyl ether. In addition to that the mice in blank control group with instilled with 100 μL of normal saline nasally, the mice in other groups with slowly instilled with an equal volume of a MPFH strain solution (containing 1×10^7 mL^−1 MPFH strain) to the nasal cavity, for consecutive 3 days, and inhaled the MPFH strain solution into bronchi. After instillation with mycoplasmas through tracheas, the mice received 5 mg/kg bleomycin through tracheas to induce their pulmonary fibrosis. After the model was established for two weeks, the mice in each group were intragastrically administrated for intervention for consecutive 14 days; the mice in blank control group and model group intragastrically received an equal dosage of normal saline as those in drug groups; the mice in Nintedanib positive control group received Nintedanib (120 mg/kg); the mice in hypoxanthine analogue A group, hypoxanthine analogue B group and hypoxanthine analogue C group respectively received hypoxanthine analogue A (120 mg/kg/d), hypoxanthine analogue B (120 mg/kg/d) and hypoxanthine analogue C (120 mg/kg/d); and the mice in compound 1 group, compound 2 group . . . compound 12 group respectively received compound 1 (120 mg/kg/d), compound 2 (120 mg/kg/d) . . . compound 12 (120 mg/kg/d) prepared in example 1. The mice were administrated once a day to be treated for consecutive 14 days. The mice were observed every day, and their weights and death conditions were recorded. On the last day of administration, the mice were sacrificed; and blood was taken from eyeballs and kept at −80° C. for detecting blood routine indexes. Meanwhile, lungs were lavaged with normal saline and separated to collect lavage fluids for detecting counts and classes of leucocytes; and lung tissues were taken for HE straining and Ashcroft scoring on the extent of pulmonary fibrosis.

Assay [2] concerns influenza A virus-induced pulmonary fibrosis model (FM1 strain of influenza A (H1N1) virus). Kind of assay: Influenza A virus-induced pulmonary fibrosis model. To be noted: 120 mg/kg/d intragastric, 14 days; for Ashcroft scores: influenza A virus + bleomycin, lung tissue HE; for IL-1β / IL-6 / NF-κB / TNF-α: serum, influenza A (H1N1) FM1 + bleomycin, from two weeks after model. The source says:
Experimental method: an in-vivo influenza A virus-induced pulmonary fibrosis model was established: C57BL/6 mice (with weights being 22-25 g) were randomly and evenly divided into a plurality of groups, including blank control group, model group, Nintedanib positive control group, hypoxanthine analogue A group, hypoxanthine analogue B group, hypoxanthine analogue C group, compound 1 group, compound 2 group . . . compound 12 group, with 9 mice in each group. On Day 1, the mice in blank control group were instilled with normal saline nasally, and the mice in other groups were all infected with a FM1 strain of an influenza A (H1N1) virus 30 (μL) through nasal instillation. On Day 2, the mice received 5 mg/kg bleomycin through tracheas to induce their pulmonary fibrosis. After the model was established for two weeks, the mice in each group were intragastrically administrated for intervention for consecutive 14 days; the mice in blank control group and model group intragastrically received the same dosage of the normal saline as those in drug groups; the mice in Nintedanib positive control group received Nintedanib (120 mg/kg); the mice in hypoxanthine analogue A group, hypoxanthine analogue B group and hypoxanthine analogue C group respectively received hypoxanthine analogue A (120 mg/kg/d), hypoxanthine analogue B (120 mg/kg/d) and hypoxanthine analogue C (120 mg/kg/d); and the mice in compound 1 group, compound 2 group . . . compound 12 group respectively received compound 1 (120 mg/kg/d), compound 2 (120 mg/kg/d) . . . compound 12 (120 mg/kg/d) prepared in example 1. After administration for consecutive 14 days, the mice were observed every day, and their weights and death conditions were recorded. After administration, blood was taken from eyeballs for immediately detecting the expression levels of NF-κB, TNF-α, IL-1 and IL-6 in serum, and lung tissues were taken for HE detection and Ashcroft scoring.

The subject of assay [3] is bleomycin-induced pulmonary fibrosis model. The experiment in a line: Advanced pulmonary fibrosis: bleomycin-induced model, dosing from three weeks after modelling. The settings on record: for Leucocyte / Lymphocyte / Neutrophil / Ashcroft scores: advanced pulmonary fibrosis, 120 mg/kg/d intragastric, 14 days, from three weeks after model; for Leucocyte / Lymphocyte / Neutrophil: blood, Day 15, twice every day; for Ashcroft scores: lung tissue HE staining; for inhibition (anti-inflammatory) effect on leucocytes, neutrophils and lymphocytes in blood: mice with advanced pulmonary fibrosis, result in words.

In assay [4] the test system is Streptococcus pneumoniae-induced pulmonary fibrosis model. Kind of assay: Streptococcus pneumoniae-induced pulmonary fibrosis model. The settings on record: for Leucocyte / Lymphocyte / Neutrophil / Ashcroft scores: Streptococcus pneumoniae + bleomycin, 120 mg/kg/d intragastric, 14 days; for Leucocyte / Lymphocyte / Neutrophil: blood, Day 15, 3 times every day, from one week after model; for Ashcroft scores: lung tissue HE staining; for inhibition (anti-inflammatory) effect on leucocytes, neutrophils and lymphocytes in blood: mice with Streptococcus pneumoniae-induced pulmonary fibrosis, result in words.

We go through 2 compounds from patent US20250188082A1, “Use of Hypoxanthine Compound In Preparation of Drug For Treating Pulmonary Fibrosis” (Sichuan Yiasuo Pharmaceutical Technology Co., Ltd., priority 2022, published 2025).

For the compound `COc1ncnc2c1ncn2C(C)C` [Hypoxanthine analogue C, reference compound], in assay [1] (120 mg/kg/day), the Leucocyte is recorded as 120.98 10^9/L, the Lymphocyte was 571.34 10^9/L, the Neutrophil was 238.07 10^9/L and the Ashcroft scores was determined as 6.41. Besides, in assay [2] (120 mg/kg/day), the Ashcroft scores is listed as 6.09, the IL-1β came to 338.1 pg/mL, the IL-6 is listed as 450.0 pg/mL and the NF-κB was found to be 782.1 pg/mL. Moreover, the TNF-α in assay [2] (120 mg/kg/day) came out at 333.1 pg/mL. In assay [3] (120 mg/kg/day), the Leucocyte is 72.55 10^9/L, the Lymphocyte is listed as 70.88 10^9/L, the Neutrophil is recorded as 59.66 10^9/L and the Ashcroft scores turned out to be 6.06. Moreover, in assay [3], the “inhibition (anti-inflammatory) effect on leucocytes, neutrophils and lymphocytes in blood” value (from here on “inhibition (anti-inflammatory) effect”) is reported as “obviously inferior”. Moreover, in assay [4] (120 mg/kg/day), the Leucocyte was 149.35 10^9/L, the Lymphocyte is reported as 90.12 10^9/L, the Neutrophil is 82.11 10^9/L and the Ashcroft scores is on record as 6.21. Also, the “inhibition (anti-inflammatory) effect” value in assay [4] is listed as “obviously inferior”.
In the case of `COC(=O)c1ccc2c(c1)NC(=O)/C2=C(\Nc1ccc(N(C)C(=O)CN2CCN(C)CC2)cc1)c1ccccc1` [Nintedanib, reference compound], in assay [1], the Leucocyte is on record as 122.15 10^9/L, the Lymphocyte was 565.69 10^9/L, the Neutrophil was 232.24 10^9/L and the Ashcroft scores amounted to 5.45. For the same compound, in assay [2], the Ashcroft scores came out at 4.27, the IL-1β was 220.7 pg/mL, the IL-6 is 349.1 pg/mL and the NF-κB is 625.2 pg/mL. Moreover, the TNF-α in assay [2] turned out to be 243.6 pg/mL. In assay [3], the Leucocyte is on record as 46.09 10^9/L, the Lymphocyte was 50.03 10^9/L, the Neutrophil is 40.99 10^9/L and the Ashcroft scores was determined as 4.13. Moreover, the “inhibition (anti-inflammatory) effect” value in assay [3] is reported as “obviously inferior”. Moreover, in assay [4], the Leucocyte is listed as 98.31 10^9/L, the Lymphocyte is recorded as 87.43 10^9/L, the Neutrophil is listed as 78.94 10^9/L and the Ashcroft scores was found to be 4.55. For the same compound, the “inhibition (anti-inflammatory) effect” value in assay [4] is “obviously inferior”.
